These results are taken from US20070009532A1 (priority 2005, published 2007).

Data set [1] has as its target P450 isoenzyme 3A4 (Homo sapiens, UniProt P08684). Particulars: cited from earlier work.
Data set [2] has as its target T1, P-gp (Homo sapiens, UniProt P08183).
T1 construct: relatively long duration of reversal activity in resistant cells even after the modulator has been withdrawn; endogenous in cells
Put plainly: substrate for P-gp efflux / duration of reversal activity in resistant cells. Format: cell-based.

A short description of data set [3]: pharmacokinetic interaction with co-administered oncolytics in preclinical models. Format: in vivo. Particulars: several oncolytics tested in preclinical models.

Each structure is given as a SMILES string.

Sequence of P450 isoenzyme 3A4 (P08684 whole entry): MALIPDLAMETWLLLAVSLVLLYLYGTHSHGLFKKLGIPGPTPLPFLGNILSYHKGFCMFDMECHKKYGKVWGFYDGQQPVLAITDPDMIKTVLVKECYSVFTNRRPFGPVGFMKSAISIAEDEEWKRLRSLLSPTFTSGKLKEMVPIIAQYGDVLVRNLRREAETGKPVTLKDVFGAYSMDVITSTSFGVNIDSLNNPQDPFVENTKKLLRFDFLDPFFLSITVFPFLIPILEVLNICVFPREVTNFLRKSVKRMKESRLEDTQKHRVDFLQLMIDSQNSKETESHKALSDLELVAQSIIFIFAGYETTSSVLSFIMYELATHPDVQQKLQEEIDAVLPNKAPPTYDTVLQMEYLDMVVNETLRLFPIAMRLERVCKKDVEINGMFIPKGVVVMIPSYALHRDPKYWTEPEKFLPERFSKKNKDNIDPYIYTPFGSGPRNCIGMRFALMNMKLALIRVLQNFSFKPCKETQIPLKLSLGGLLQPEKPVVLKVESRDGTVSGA
T1 sequence (P08183 whole entry): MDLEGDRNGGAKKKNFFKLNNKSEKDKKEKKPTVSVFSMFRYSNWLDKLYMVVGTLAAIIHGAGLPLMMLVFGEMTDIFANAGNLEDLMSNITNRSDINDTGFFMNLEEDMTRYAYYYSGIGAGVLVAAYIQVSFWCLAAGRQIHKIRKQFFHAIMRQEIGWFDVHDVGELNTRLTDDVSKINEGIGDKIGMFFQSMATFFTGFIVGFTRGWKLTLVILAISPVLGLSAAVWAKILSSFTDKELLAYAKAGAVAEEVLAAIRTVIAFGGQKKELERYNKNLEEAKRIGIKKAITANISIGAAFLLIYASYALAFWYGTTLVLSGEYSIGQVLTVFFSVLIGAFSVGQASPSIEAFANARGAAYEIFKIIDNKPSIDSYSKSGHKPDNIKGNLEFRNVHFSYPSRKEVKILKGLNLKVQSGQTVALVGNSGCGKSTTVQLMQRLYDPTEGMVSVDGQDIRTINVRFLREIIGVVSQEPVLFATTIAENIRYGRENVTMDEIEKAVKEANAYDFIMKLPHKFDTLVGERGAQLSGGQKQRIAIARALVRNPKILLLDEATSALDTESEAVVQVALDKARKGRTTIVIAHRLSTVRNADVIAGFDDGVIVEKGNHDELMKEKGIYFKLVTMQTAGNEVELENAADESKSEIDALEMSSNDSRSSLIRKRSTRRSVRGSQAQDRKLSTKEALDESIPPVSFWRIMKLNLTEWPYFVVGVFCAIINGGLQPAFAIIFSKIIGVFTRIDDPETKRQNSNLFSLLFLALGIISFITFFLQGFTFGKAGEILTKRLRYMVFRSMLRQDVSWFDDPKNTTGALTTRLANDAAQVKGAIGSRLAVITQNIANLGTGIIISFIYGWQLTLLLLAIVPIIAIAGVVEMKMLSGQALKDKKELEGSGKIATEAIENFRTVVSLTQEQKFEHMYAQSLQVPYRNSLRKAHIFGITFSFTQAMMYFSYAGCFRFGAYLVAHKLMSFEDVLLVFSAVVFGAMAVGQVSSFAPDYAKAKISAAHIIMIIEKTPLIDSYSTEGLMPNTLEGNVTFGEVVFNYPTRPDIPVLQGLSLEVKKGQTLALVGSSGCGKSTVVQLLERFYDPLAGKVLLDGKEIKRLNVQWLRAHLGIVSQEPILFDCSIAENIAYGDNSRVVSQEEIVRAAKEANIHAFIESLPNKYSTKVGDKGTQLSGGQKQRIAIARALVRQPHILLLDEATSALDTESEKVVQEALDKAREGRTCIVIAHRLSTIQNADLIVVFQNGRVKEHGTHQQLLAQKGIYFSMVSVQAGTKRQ

Turning to `C/C=C/C[C@@H](C)C(=O)[C@H]1C(=O)N[C@@H](C(C)C)C(=O)N(C)CC(=O)N(C)[C@@H](CC(C)C)C(=O)N[C@@H](C(C)C)C(=O)N(C)[C@@H](CC(C)C)C(=O)N[C@@H](C)C(=O)N[C@H](C)C(=O)N(C)[C@@H](CC(C)C)C(=O)N(C)[C@@H](CC(C)C)C(=O)N(C)[C@@H](C(C)C)C(=O)N1C` [valspodar], the “substrate for P450 isoenzyme 3A4” value in data set [1] is reported as “substrates for the P450 isoenzyme 3A4”.

As for `O[C@@H](COc1cccc2ncccc12)CN1CCN([C@@H]2c3ccccc3[C@@H]3[C@H](c4ccccc42)C3(F)F)CC1` [zosuquidar, (2R)-anti-5-3-[4-(10,11-difluoromethanodibenzosuber-5-y1)piperazin-1-y1]-2-hydroxypropoxy)quinoline], the “substrate for P-gp efflux” value in data set [2] is recorded as “does not appear to be a substrate for P-gp efflux”. Also, in data set [3], the “pharmacokinetic (PK) interactions with oncolytics” value is given as “minimal pharmacokinetic (PK) interactions”. On to `COc1cc(C(=O)C(=O)N2CCCC[C@H]2C(=O)OC(CCCc2cccnc2)CCCc2cccnc2)cc(OC)c1OC` [biricodar], for which the “substrate for P450 isoenzyme 3A4” value in data set [1] is listed as “substrates for the P450 isoenzyme 3A4”.
